# Experimental data reported in ChEMBL document CHEMBL3734728, “2,30-Bis(10H-indole) heterocycles: New p53/MDM2/MDMX antagonists” (Bioorg Med Chem Lett, 2015).
# Columns and labels:
# [1] = Lipophilicity, logP of the compound; assay type: physicochemical; details: octanol/water
# [2] = target: T1, Protein Mdm4 (Homo sapiens, UniProt O15151)
# T1 sequence (O15151 whole entry): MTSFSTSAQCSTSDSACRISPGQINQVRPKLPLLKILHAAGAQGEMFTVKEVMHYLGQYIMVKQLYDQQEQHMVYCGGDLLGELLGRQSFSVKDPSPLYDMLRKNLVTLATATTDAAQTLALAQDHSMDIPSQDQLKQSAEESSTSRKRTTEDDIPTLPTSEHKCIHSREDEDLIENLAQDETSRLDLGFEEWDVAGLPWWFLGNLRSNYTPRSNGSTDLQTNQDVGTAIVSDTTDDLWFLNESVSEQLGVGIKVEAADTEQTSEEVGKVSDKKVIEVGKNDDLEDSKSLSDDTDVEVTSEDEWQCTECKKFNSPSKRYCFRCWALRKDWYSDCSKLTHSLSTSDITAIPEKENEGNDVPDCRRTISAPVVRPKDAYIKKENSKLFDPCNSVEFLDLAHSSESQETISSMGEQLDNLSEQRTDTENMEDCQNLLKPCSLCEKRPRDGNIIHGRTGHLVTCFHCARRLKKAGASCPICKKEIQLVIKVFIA
# [3] = target: E3 ubiquitin-protein ligase Mdm2 (Homo sapiens, UniProt Q00987)
# E3 ubiquitin-protein ligase Mdm2, sequence (Q00987 whole entry): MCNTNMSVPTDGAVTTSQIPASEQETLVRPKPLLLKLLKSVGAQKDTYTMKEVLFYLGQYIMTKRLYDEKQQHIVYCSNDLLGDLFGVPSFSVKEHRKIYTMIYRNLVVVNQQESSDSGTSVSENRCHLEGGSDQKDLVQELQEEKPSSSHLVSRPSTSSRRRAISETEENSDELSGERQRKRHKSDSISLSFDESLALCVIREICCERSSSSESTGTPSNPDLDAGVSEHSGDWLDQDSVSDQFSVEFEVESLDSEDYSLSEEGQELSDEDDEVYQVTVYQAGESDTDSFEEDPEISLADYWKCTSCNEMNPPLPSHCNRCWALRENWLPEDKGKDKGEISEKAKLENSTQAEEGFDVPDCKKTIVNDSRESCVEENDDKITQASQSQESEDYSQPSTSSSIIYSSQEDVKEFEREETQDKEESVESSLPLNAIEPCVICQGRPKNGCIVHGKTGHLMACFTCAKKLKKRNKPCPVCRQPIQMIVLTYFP
Compound,logP [1],Ki [2] [µM],Ki [3] [µM]
O=C(O)c1[nH]c2cc(Cl)ccc2c1-c1c(-c2ccc(F)cc2)c2ccccc2n1Cc1ccc(Cl)cc1,7.38,,
CCOC(=O)c1[nH]c2cc(Cl)ccc2c1-c1c(-c2ccc(F)cc2)c2ccccc2n1Cc1ccc(Cl)cc1,7.98,,
Clc1ccc(Cn2c(-c3c[nH]c4cc(Cl)ccc34)c(-c3ccccc3)c3ccccc32)cc1,7.61,,
CCOC(=O)c1[nH]c2cc(Cl)ccc2c1-c1c(-c2ccc(Cl)cc2)c2ccccc2n1Cc1ccc(Cl)cc1,8.38,> 60,> 22

# Further lines, with some results ahead:
logP [1],Compound,Ki [2] [µM],Ki [3] [µM]
7.22,O=C(O)c1[nH]c2cc(Cl)ccc2c1-c1c(-c2ccccc2)c2ccccc2n1Cc1ccc(Cl)cc1,,
6.4,O=C(NCCN1CCOCC1)c1[nH]c2cc(Cl)ccc2c1-c1c(-c2ccccc2)c2ccccc2n1Cc1ccc(Cl)cc1,,
7.82,CCOC(=O)c1[nH]c2cc(Cl)ccc2c1-c1c(-c2ccccc2)c2ccccc2n1Cc1ccc(Cl)cc1,,
